≈ marks a conversion by molar mass, not a printed value.
Test system: H. pylori (strain 3339)
Test: Broth dilution antimicrobial test, H. pylori strain 3339
Assay type: cell-based, Helicobacter pylori
Conditions: compounds from subfractions 6 and 10

| Compound | MBC [µg/mL] | MIC [µg/mL] |
| --- | --- | --- |
| α and β-Eudesmol | 125 | 15.6 |
| CCCCC1OC(=O)C2=C1CCC=C2 (stereo not shown) [sedanenolide, 3-n-butyl 4,5-dihydrolphthalide] | 62.5 (≈ 325 µM) | 31.2 (≈ 163 µM) |
| CCCCC/C=C/C/C=C/CCCCCCCC(=O)O [Linoleic acid, cis, cis - 9,12- Octadecadienoic acid] | > 125 | 62.5 (≈ 223 µM) |
| CCCCC1OC(=O)c2ccccc21 (stereo not shown) [3-n Butyl phthalide, 3-n-butyl phthalide] | – | 15.6 (≈ 82.1 µM) |

— US20060013906A1, “Anti-helicobacter activity of celery seed extract” (priority 2002, published 2006)
